{
  "source": "patent US7230074B2",
  "about": "“Inhibitors of dipeptidyl-aminopeptidase type IV” (Trustees of Tufts College, priority 1991, dated 2007)",
  "key": {"[1]": {"experiment": "Decomposition in aqueous solution", "type": "physicochemical", "conditions": "neutral pH, room temperature (20–25° C.)", "description": ". Many dipeptide derivatives with a free N terminal amino group and a functional group (such as a difluoromethyl ketone) on the C-terminus are similarly unstable due to intramolecular reaction. A six member ring is formed between the amino and C-terminal functional groups and undergoes subsequent further reaction, such as hydrolysis."}, "HIV-1-IIIB in A3.5 cells": {"test_system": "HIV-1-IIIB in A3.5 cells", "experiment": "HIV-1 replication in A3.5 cells (p24 antigen ELISA)", "type": "cell-based", "description": "[…]. The rational for these experiments comes from the reported connection between T-cell activation, IL-2 production, and HIV replication and expression of HIV proteins.\nCell lines used in the present studies include A3.5 cells (a monocyte cell line which is CD4+, HLA−DR+, and CD3—) and peripheral blood mononuclear cells (PBMC). The A3.5 cells grow continuously in culture without exogenous growth factors. PBMC cells require IL-2 for propagation in vitro. Cells were infected with HIV-1-IIIB at a multiplicity of infection (moi) of 5×10^−4 tissue culture infectious dose 50 (TCID50)/cell for both the A3.5 cells and the PMBC cells. Dilutions of inhibitor were made in RPMI-1640 and subsequently passed through a 0.22 um filter. At the start of each experiment, 1×10^6 cells/well, in 24-well plates, were infected with HIV-1-IIIB at the moi indicated above. Inhibitor was added simultaneously at the appropriate dilutions. All cultures were maintained at 5% CO2 and 37° C. in RPMI-1640 supplemented with penicillin, streptomycin, L-glutamine, hepes buffer, and 20% heat-inactivated fetal calf serum. Cell counts and viability were determined by trypan blue exclusion. Culture supernatants were harvested and assayed for HIV-1 p24 antigen by ELISA (NEN-DuPont, Boston, Mass.). Fresh media and inhibitor were added on each day. […]"}, "[2]": {"molecular_target": "T1, DP-IV isolated from porcine kidneys (Sus scrofa, UniProt P22411)", "T1 construct": "DP-IV is purified from pig kidney cortex by the method of Barth et al; from tissue; host or cells: pig kidney cortex", "T1 sequence (P22411 whole entry)": "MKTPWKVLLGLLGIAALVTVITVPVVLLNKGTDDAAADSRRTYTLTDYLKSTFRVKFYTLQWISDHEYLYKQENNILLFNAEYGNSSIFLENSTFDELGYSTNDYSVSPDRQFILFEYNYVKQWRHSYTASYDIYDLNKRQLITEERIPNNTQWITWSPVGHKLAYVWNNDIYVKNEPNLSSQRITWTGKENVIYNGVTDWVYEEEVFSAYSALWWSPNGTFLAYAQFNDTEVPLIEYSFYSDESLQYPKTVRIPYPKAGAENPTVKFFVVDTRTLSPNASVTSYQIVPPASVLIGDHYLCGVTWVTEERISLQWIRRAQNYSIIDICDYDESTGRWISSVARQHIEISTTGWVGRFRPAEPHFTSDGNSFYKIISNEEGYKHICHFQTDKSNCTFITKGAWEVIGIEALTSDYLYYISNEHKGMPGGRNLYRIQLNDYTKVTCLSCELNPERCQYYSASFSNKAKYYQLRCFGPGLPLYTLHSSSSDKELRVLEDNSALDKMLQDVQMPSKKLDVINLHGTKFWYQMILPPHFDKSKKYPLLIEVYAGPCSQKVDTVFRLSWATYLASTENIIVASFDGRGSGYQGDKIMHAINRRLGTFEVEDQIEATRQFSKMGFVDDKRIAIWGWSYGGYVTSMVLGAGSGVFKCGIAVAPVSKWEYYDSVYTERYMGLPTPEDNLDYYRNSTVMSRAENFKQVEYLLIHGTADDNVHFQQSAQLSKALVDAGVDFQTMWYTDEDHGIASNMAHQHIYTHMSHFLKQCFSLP", "experiment": "DP-IV inhibition, hydrolysis of Ala-Pro-p-nitroanilide", "type": "biochemical, pig", "conditions": "for Inhibition of / affinity for DP-IV (in words): N terminus blocked", "description": "Briefly, a reaction containing 50 μmol sodium Hepes (pH 7.8), 10 μmol Ala-Pro-p-nitroanilide, 6 milliunits of DP-IV, and 2% (vol/vol) dimethylformamide in a total volume of 1.0 ml. The reaction was initiated by the addition of enzyme and reaction rates were measured at 25° C.\nTh rates of DP-IV-catalyzed hydrolysis of Ala-Pro-p-nitroanilide were determined at 3 to 5 different concentration of Ala-boroPro Pro-boroPro, boroPro and N-Boc-Ala-boroPro."}, "[3]": {"molecular_target": "T2, DP-IV from human placenta (Homo sapiens, UniProt P27487)", "T2 construct": "and from human placenta by the method of Puschel et al; from tissue; host or cells: human placenta", "T2 sequence (P27487 whole entry)": "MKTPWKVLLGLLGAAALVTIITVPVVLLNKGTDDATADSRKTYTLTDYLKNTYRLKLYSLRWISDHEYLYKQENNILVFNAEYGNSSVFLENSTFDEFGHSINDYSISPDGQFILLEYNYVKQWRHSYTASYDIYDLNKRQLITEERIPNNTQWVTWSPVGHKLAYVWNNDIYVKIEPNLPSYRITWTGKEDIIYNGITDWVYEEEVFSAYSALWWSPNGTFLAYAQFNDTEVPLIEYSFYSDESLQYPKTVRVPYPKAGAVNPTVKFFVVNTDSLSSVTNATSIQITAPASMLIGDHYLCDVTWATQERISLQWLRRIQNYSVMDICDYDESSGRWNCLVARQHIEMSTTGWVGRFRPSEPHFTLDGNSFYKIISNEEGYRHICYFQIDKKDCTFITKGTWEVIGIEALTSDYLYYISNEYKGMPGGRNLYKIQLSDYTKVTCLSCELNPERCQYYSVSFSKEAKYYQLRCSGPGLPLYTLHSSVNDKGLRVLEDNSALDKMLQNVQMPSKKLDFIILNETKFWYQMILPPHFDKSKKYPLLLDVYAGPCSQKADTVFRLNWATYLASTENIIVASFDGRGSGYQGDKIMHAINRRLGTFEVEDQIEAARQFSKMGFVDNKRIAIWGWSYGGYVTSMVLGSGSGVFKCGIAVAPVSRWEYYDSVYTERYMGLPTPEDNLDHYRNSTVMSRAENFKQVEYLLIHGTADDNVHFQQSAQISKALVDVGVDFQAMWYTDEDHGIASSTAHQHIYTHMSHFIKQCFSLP", "experiment": "DP-IV inhibition, enzyme from human placenta", "type": "biochemical"}},
  "data": [
    {"smiles": "C[C@H](N)C(=O)N1CCCC1B(O)O", "note": "(mixture of isomers) [Ala-boroPro, H-Ala-boroPro]", "values": [
      {"measurement": "half-life", "setting": "[1]", "value": "~0.5", "unit": "h"},
      {"measurement": "Suppression of HIV (p24 antigen)", "setting": "HIV-1-IIIB in A3.5 cells; A3.5 cells infected with HIV-1-IIIB", "value": "suppresses HIV below detectable levels"}
    ]},
    {"smiles": "O=C([C@@H]1CCCN1)N1CCCC1B(O)O", "note": "(mixture of isomers) [Pro-boroPro, H-Pro-boroPro]", "values": [
      {"measurement": "Ki", "setting": "[2]", "value": 0.003, "unit": "µM"},
      {"measurement": "Ki for DP-IV (in words)", "setting": "[2]; pig kidney DP-IV", "value": "nanomolar range"},
      {"measurement": "Affinity for DP-IV, fold less than that of H-Ala-boroPro", "setting": "[2]; relative to H-Ala-boroPro", "value": "about 10 fold"},
      {"measurement": "Inhibition of DP-IV from human placenta compared with pig kidney enzyme", "setting": "[3]", "value": "equally well"},
      {"measurement": "half-life", "setting": "[1]", "value": "~1.5", "unit": "h"}
    ]},
    {"smiles": "Cc1cn([C@H]2C[C@H](N=[N+]=[N-])[C@@H](CO)O2)c(=O)[nH]c1=O", "note": "[AZT, zidovudine, reference compound]", "values": [
      {"measurement": "Anti-HIV effect (p24 antigen)", "setting": "HIV-1-IIIB in A3.5 cells; 1 μM, A3.5 cells", "value": "anti-HIV effect"}
    ]},
    {"smiles": "OB(O)C1CCCN1", "note": "(stereo not shown) [BoroPro, boroProline]", "values": [
      {"measurement": "Ki", "setting": "[2]", "value": 110, "unit": "µM"},
      {"measurement": "Decrease in affinity on going from Ala-boroPro or Pro-boroPro", "setting": "[2]; relative to Ala-boroPro or Pro-boroPro, Table 1", "value": "10^5–10^6"}
    ]},
    {"smiles": "CC(NC(=O)OC(C)(C)C)C(=O)N1CCCC1B(O)O", "note": "(stereo not drawn) [N-Boc-Al-boroPro, N-Boc-Ala-boroPro]", "values": [
      {"measurement": "Ki", "setting": "[2]", "value": "> 1000", "unit": "µM"},
      {"measurement": "Inhibition of / affinity for DP-IV (in words)", "setting": "[2]", "value": "abolished inhibition"},
      {"measurement": "Inhibition of / affinity for DP-IV (in words)", "setting": "[2]; listed as Boc-blocked Ala-boroPr", "value": "no affinity"}
    ]}
  ]
}
